In patent US7943583B2, “2-O-(β-D-glucopyranosyl) ascorbic acid, process for its production, and foods cosmetics containing compositions comprising it” (Suntory Holdings Limited, priority 2001, dated 2011):
Like-named read-outs stand apart in the source and are kept apart here.

What was measured:
[1] = rats; cited from earlier work
[2] = Intestinal absorption in rat: portal vein plasma concentrations after oral administration; assay type: in vivo
Protocol: A solution of 2-O-(β-D-glucopyranosyl)ascorbic acid in Milli-Q Ultrapure Water (Millipore Corporation) (100 mg/4 mL) was orally administered at a dose of 100 mg/kg by using a feeding tube to overnight-starved and awake 10-week-old male Wistar rats (n=3) purchased from Nihon Charles River Co. After 0, 0.5, 2 and 4 hours, heparinized blood samples were collected from the portal vein and the plasma from each sample was separated by centrifugation (6000×g, 10 min). After addition of an equivalent of ice-cooled 10% metaphosphoric acid (containing 40 mM deferoxamine mesylate), the mixture was centrifuged (10,000×g, 10 min) to obtain protein-removed portal vein plasma, of which the unconverted 2-O-(β-D-glucopyranosyl)ascorbic acid and ascorbic acid concentrations were measured by high performance liquid chromatography (LC-10Ai System by Shimadzu Co., Ltd., Column: Inertsil ODS-3 (GL Science Co., Ltd., 3.0×150 mm, 5 μm), mobile phase: 15% MeOH-17 mM KH2PO4/H3PO4 (pH 3.5)-5 mM tetra-n-amylammonium bromide, flow rate: 0.3 mL/min, column temperature: 35° C., detection wavelength: 254 nm). The unconverted 2-O-(β-D-glucopyranosyl)ascorbic acid and the metabolite (ascorbic acid) were found present in maximum amounts 30 minutes after administration.

[3] = tested on: human skin epidermal keratinocytes (HaCaT); test: Intracellular ascorbic acid concentration in human skin epidermal keratinocytes (HPLC); assay type: cell-based; settings: 100 μM, 3-24 hours after addition, compared with 2-O-(α-D-glucopyranosyl)ascorbic acid and ascorbic acid
Protocol: Human skin epidermal keratinocyte cells HaCaT were plated onto a 100 mm diameter dish at a cell count of 370,000. After 16 hours of culturing, there was added 100 μM of 2-O-(β-D-glucopyranosyl)ascorbic acid dissolved in DMEM containing 10% FBS and 40% of 24-hour serum-free HaCaT culture solution. The medium was removed 3-24 hours after the addition, rinsing was performed twice with ice-cooled PBS, and the cell sheet was treated with trypsin to obtain the separated cells. These were suspended in PBS containing 50 μM dithiothreitol (DTT) and rinsed 3 times by centrifugation. The cells received freeze-thawing twice were crushed with a Potter-type teflon homogenizer for 30 sec on the ice. The cell homogenate was centrifuged at 5° C., and supernate thus separated was stored on the ice. The supernatant was subjected to treatment with Molcut (product of Nihon Millipore Co., Ltd.; High-pressure ultrafiltration unit, nominal molecular weight limit (NMWL): 10,000, polyethersulfone membrane), and the amount of intracellular ascorbic acid was analyzed by high performance liquid chromatography (AS-8020 System by Toso Co., Ltd., column: Shodex ODSpak (4.6×150 mm, product of Showa Denko Co., Ltd.), mobile phase: 0.1 M KH2PO4—H3PO4 (pH 2.35)-0.1 mM EDTA-2 Na, flow rate: 1.5 mL/min) using a coulometric electrochemical detector (ESA Co., Bedford, Mass., 200 mV). […]

[4] = tested on: normal human dermal fibroblast (NHDF) cells; test: Population doubling level (PDL) of normal human dermal fibroblasts; assay type: cell-based; settings: 100 μM
Protocol: Normal human dermal fibroblast (NHDF) cells were plated onto a 100 mm diameter dish at a cell density of 370,000. After 16 hours of culture in DMEM supplied with 10% FBS, the medium was replaced by DMEM fortified with 10% FBS and supplied with 40% of a domestic-conditioned medium containing 100 μM of 2-O-(β-D-glucopyranosyl)ascorbic acid. The cultivation was continued for 46-188 hours until cells reached a near confluent state. The domestic-conditioned medium was prepared by separately culturing NHDF cells to the state of near confluency, which was further cultivated in a serum-free medium for 24 hours, and collecting the culture supernatant, which was stored in a refrigerator and used within 3 days. In connection with the above 46-188 hours of cultivation, the medium was changed every 3 days with fresh DMEM fortified with 10% FBS and supplied with 40% of the domestic-conditioned medium containing 100 μM of 2-O-(β-D-glucopyranosyl)ascorbic acid. When medium change was made, the cell number in the old culture medium was counted and used in the PDL assessment. The number of cells adhering onto the plate was counted by Coulter counter. PDL value at the start of culture was taken as 0, and PDL values thereafter were calculated by the equation: PDL=log2(recovered cell number/seeded cell number). […]

[5] = tested on: NHDF cells; test: Reduction speed of telomere lengths (TRF Southern blot) in NHDF cells; assay type: cell-based, human
Protocol: The TRFs were separated by electrophoresis and the length of the telomere DNA was quantified with a labeled probe specifically binding to telomere. Details of the method used in the study is described in Life Sciences, Vol. 63, No. 11, 935-948 (1998).
The fibroblast cells (NHDF) from human skin epidermis were dispersed by treatment with trypsin, added into a 1.5 ml tube at 10^6/tube, centrifuged for 2 min. at 1,200 rpm at 4° C., and the supernatant was discarded. The pellet was washed two times with 1 ml RNase free PBS(−), the supernatant was removed as sufficiently as possible, and the cells were stored at −80° C. The frozen sample was restored to ambient temperature, genomic DNA was extracted by use of IsoQuick Nucleic Acid Extraction Kit (ORCA Research Inc.). The extracted DNA was dissolved in 10 mM Tris-HCl, 1 mM EDTA, pH8.0 to be stored at 4° C. The DNA content was determined by the fluorescent reader (Cytofluor 2350, Millipore Corporation) with the DNA binding reagent Hoechist 33258, and TRF was prepared by restricted digestion with HinfI treatment. The restricted digestion was carried out as follows. There were added into a 1.5 ml tube, 2 μl of 10× H buffer (TaKaRa, Kyoto), the solution of extracted genomic DNA (2 μg), sterilized water to make up 19 μl, and finally 1 μl of HinfI (6 U/μl, TaKaRa, Kyoto). […]

[6] = tested on: normal human dermal fibroblasts (NHDF); test: Collagen synthesis by normal human dermal fibroblasts ([3H]proline incorporation, collagenase-digestible); assay type: cell-based; settings: 100 μM, 48 hours, compared to 2-O-(α-D-glucopyranosyl)ascorbic acid or ascorbic acid
Protocol: Normal human dermal fibroblast cells (NHDF) were plated onto a 100 mm diameter dish at a cell count of 370,000. After 16 hours of culture, there was added 100 μM of 2-O-(β-D-glucopyranosyl)ascorbic acid dissolved in DMEM medium containing 10% FBS and 40% of 24-hour serum-free NHDF culture solution. After another hour, 0.12 mL (120 μCi) of L-[2,3-^3H]proline was added and culturing was continued for 48 hours. The medium was removed after culturing, and the cell sheet was rinsed 4 times with PBS. The cells were then treated with trypsin, lysed with an alkali, and then neutralized to obtain the intracellular protein. The fraction obtained by digesting this protein with Clostridium collagenase was measured in terms of radioactivity with a liquid scintillation counter using Scintisol EX-H. The intracellular protein fraction not treated with collagenase was also measured in terms of radioactivity using a liquid scintillation counter. The difference in radioactivities was calculated and recorded as the collagen synthesizing activity. For comparison, 2-O-(α-D-glucopyranosyl)ascorbic acid and ascorbic acid were examined in a similar manner, and the results are also shown in FIG. 7.

[7] = tested on: human skin epidermal keratinocytes (HaCaT); test: Protecting effect against cell death of HaCaT induced by UVB irradiation (WST-1 viable cell count); assay type: cell-based; settings: compared to ascorbic acid or 2-O-(α-D-glucopyranosyl)ascorbic acid at the same concentration; added at 20-100 μM 2 h before UVB 35 mJ/cm^2
Protocol: The human skin epidermal keratinocyte line HaCaT (a cell line provided by Professor Fusenig of Heidelberg University) was plated on a 24-well plate at 10,000 cells/well with Dulbecco's modified Eagle medium (DMEM) containing 10% fetal bovine serum (FBS) and after 18 hours, the cells were irradiated with UVB (maximum wavelength: 312 nm) at 35 millijoules/square centimeter (mJ/cm^2). Two hours before irradiation, 2-O-(β-D-glucopyranosyl)ascorbic acid was added at 20-100 μM and removed with rinsing just before irradiation. The irradiation was performed in PBS in the absence of chemical agents, after which culturing was continued in DMEM containing 10% FBS, and the viable cell count was determined 24 hours after irradiation by measuring the mitochondrial dehydrogenase activity using 2-(4-iodophenyl)-3-(4-nitrophenyl)-5-(2,4-disulfophenyl)-2H-tetrazolium monosodium salt (WST-1). For comparison, 2-O-(α-D-glucopyranosyl)ascorbic acid and ascorbic acid were examined in a similar manner, and the results are also shown in FIG. 5.

SMILES | unconverted form in the blood upon oral ingestion [1] | time of maximum amount of unconverted 2-O-(β-D-glucopyranosyl)ascorbic acid in portal vein plasma ([2]; Wistar rats, oral 100 mg/kg) [min] | unconverted form in the blood upon oral ingestion ([2]; rats, oral) | intracellular ascorbic acid concentration [3] | PDL of NHDF greater than in the absence of ascorbic acid derivative (PDL 20.1) [4] [times] | average reduction speed of telomere length ([5]; 225 bp/PDL in the absence of any ascorbic acid derivative) [bp/PDL] | shortening of the speed of the telomere length to reduce to the critical length ([5]; versus no ascorbic acid derivative) | collagen synthesis activity [6] | effect of preventing cell death of HaCaT induced by UVB irradiation [7]
O=C1O[C@H]([C@@H](O)CO)C(O)=C1O[C@H]1O[C@H](CO)[C@@H](O)[C@H](O)[C@H]1O [2-O-(α-D-glucopyranosyl)ascorbic acid] | no detection of the unconverted form in the blood | – | – | – | – | – | – | – | –
O=C1O[C@H]([C@@H](O)CO)C(O)=C1O[C@@H]1O[C@H](CO)[C@@H](O)[C@H](O)[C@H]1O [2-O-(β-D-glucopyranosyl)ascorbic acid] | – | 30 | detected in the blood | maintained at a higher concentration for the longest time | 2.62 | 94 | approximately 42% | increased activity | stronger effect of preventing cell death
